{"source": "the supplement of paper PMC10307832", "data": [{"compound": "CC(C)C[C@H](NC(=O)[C@H](CCc1ccccc1)NC(=O)CN1CCOCC1)C(=O)N[C@@H](Cc1ccccc1)C(=O)N[C@@H](CC(C)C)C(=O)[C@@]1(C)CO1 [Carfilzomib] + Cc1nc(Nc2ncc(C(=O)Nc3c(C)cccc3Cl)s2)cc(N2CCN(CCO)CC2)n1 [Dasatinib] (partner 0.075 µM)", "assay": "relative viability (nuclei count vs DMSO), 5 days (fraction); higher = more cells survive", "conditions": "first compound 0.01 µM", "procedure,_shortened": "(§1)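 Relative viability equals treated-well nuclei counts divided by vehicle-well nuclei counts. Counts came from 4× images of lung cancer cell lines grown in 1536-well plates for 5 days after pin-tool dosing on the day after seeding. Dosing used one drug alone or a fixed anchor-drug dose plus five library-drug doses (not always all listed) in √10 steps, and values are medians of duplicate plates.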", "values": [{"cell line": "NCI-H1355", "relative viability": 0.686}, {"cell line": "NCI-H1395", "relative viability": 0.417}, {"cell line": "NCI-H1437", "relative viability": 0.419}, {"cell line": "NCI-H1650", "relative viability": 0.207}, {"cell line": "NCI-H1651", "relative viability": 0.266}, {"cell line": "NCI-H1666", "relative viability": 0.817}, {"cell line": "NCI-H1734", "relative viability": 0.487}, {"cell line": "NCI-H1755", "relative viability": 0.479}, {"cell line": "NCI-H1792", "relative viability": 0.918}, {"cell line": "NCI-H1915", "relative viability": 0.299}, {"cell line": "NCI-H1944", "relative viability": 0.186}, {"cell line": "NCI-H1975", "relative viability": 0.144}, {"cell line": "NCI-H1993", "relative viability": 0.581}, {"cell line": "NCI-H2009", "relative viability": 0.3}, {"cell line": "NCI-H2023", "relative viability": 0.59}, {"cell line": "NCI-H2085", "relative viability": 0.255}, {"cell line": "NCI-H2087", "relative viability": 0.465}, {"cell line": "NCI-H2126", "relative viability": 0.705}, {"cell line": "NCI-H2170", "relative viability": 0.832}, {"cell line": "NCI-H2342", "relative viability": 0.355}, {"cell line": "NCI-H2347", "relative viability": 0.338}]}, {"compound": "CC(C)C[C@H](NC(=O)[C@H](CCc1ccccc1)NC(=O)CN1CCOCC1)C(=O)N[C@@H](Cc1ccccc1)C(=O)N[C@@H](CC(C)C)C(=O)[C@@]1(C)CO1 [Carfilzomib] + Cc1nc(Nc2ncc(C(=O)Nc3c(C)cccc3Cl)s2)cc(N2CCN(CCO)CC2)n1 [Dasatinib] (partner 0.075 µM)", "assay": "relative viability (nuclei count vs DMSO), 5 days (fraction); higher = more cells survive", "conditions": "first compound 0.03162 µM", "procedure,_shortened": "as §1", "values": [{"cell line": "LXF-289", "relative viability": 0.0373}, {"cell line": "NCI-H23", "relative viability": 0.158}, {"cell line": "NCI-H322M", "relative viability": 0.271}, {"cell line": "NCI-H358", "relative viability": 0.0675}, {"cell line": "NCI-H441", "relative viability": 0.156}, {"cell line": "NCI-H460", "relative viability": 0.538}, {"cell line": "NCI-H520", "relative viability": 0.188}, {"cell line": "NCI-H522", "relative viability": 0.398}, {"cell line": "NCI-H596", "relative viability": 0.381}, {"cell line": "NCI-H647", "relative viability": 0.0266}, {"cell line": "NCI-H650", "relative viability": 0.359}, {"cell line": "NCI-H661", "relative viability": 0.72}, {"cell line": "NCI-H838", "relative viability": 0.267}, {"cell line": "NCI-H1355", "relative viability": 0.382}, {"cell line": "NCI-H1395", "relative viability": 0.36}, {"cell line": "NCI-H1437", "relative viability": 0.257}, {"cell line": "NCI-H1650", "relative viability": 0.165}, {"cell line": "NCI-H1651", "relative viability": 0.104}, {"cell line": "NCI-H1666", "relative viability": 0.568}, {"cell line": "NCI-H1734", "relative viability": 0.2}, {"cell line": "NCI-H1755", "relative viability": 0.365}, {"cell line": "NCI-H1792", "relative viability": 0.657}, {"cell line": "NCI-H1915", "relative viability": 0.174}, {"cell line": "NCI-H1944", "relative viability": 0.203}, {"cell line": "NCI-H1975", "relative viability": 0.0922}, {"cell line": "NCI-H1993", "relative viability": 0.467}, {"cell line": "NCI-H2009", "relative viability": 0.113}, {"cell line": "NCI-H2023", "relative viability": 0.181}, {"cell line": "NCI-H2085", "relative viability": 0.249}, {"cell line": "NCI-H2087", "relative viability": 0.0405}, {"cell line": "NCI-H2126", "relative viability": 0.655}, {"cell line": "NCI-H2170", "relative viability": 0.352}, {"cell line": "NCI-H2342", "relative viability": 0.374}, {"cell line": "NCI-H2347", "relative viability": 0.197}]}, {"compound": "CC(C)C[C@H](NC(=O)[C@H](CCc1ccccc1)NC(=O)CN1CCOCC1)C(=O)N[C@@H](Cc1ccccc1)C(=O)N[C@@H](CC(C)C)C(=O)[C@@]1(C)CO1 [Carfilzomib] + Cc1nc(Nc2ncc(C(=O)Nc3c(C)cccc3Cl)s2)cc(N2CCN(CCO)CC2)n1 [Dasatinib] (partner 0.075 µM)", "assay": "relative viability (nuclei count vs DMSO), 5 days (fraction); higher = more cells survive", "conditions": "first compound 0.1 µM", "procedure,_shortened": "as §1", "values": [{"cell line": "LXF-289", "relative viability": 0.0553}, {"cell line": "NCI-H23", "relative viability": 0.125}, {"cell line": "NCI-H322M", "relative viability": 0.232}, {"cell line": "NCI-H358", "relative viability": 0.0836}, {"cell line": "NCI-H441", "relative viability": 0.176}, {"cell line": "NCI-H460", "relative viability": 0.0417}, {"cell line": "NCI-H520", "relative viability": 0.213}, {"cell line": "NCI-H522", "relative viability": 0.433}, {"cell line": "NCI-H596", "relative viability": 0.174}, {"cell line": "NCI-H647", "relative viability": 0.0232}, {"cell line": "NCI-H650", "relative viability": 0.164}, {"cell line": "NCI-H661", "relative viability": 0.172}, {"cell line": "NCI-H838", "relative viability": 0.182}, {"cell line": "NCI-H1355", "relative viability": 0.264}, {"cell line": "NCI-H1395", "relative viability": 0.314}, {"cell line": "NCI-H1437", "relative viability": 0.133}, {"cell line": "NCI-H1650", "relative viability": 0.172}, {"cell line": "NCI-H1651", "relative viability": 0.0779}, {"cell line": "NCI-H1666", "relative viability": 0.352}, {"cell line": "NCI-H1734", "relative viability": 0.148}, {"cell line": "NCI-H1755", "relative viability": 0.263}, {"cell line": "NCI-H1792", "relative viability": 0.649}, {"cell line": "NCI-H1915", "relative viability": 0.102}, {"cell line": "NCI-H1944", "relative viability": 0.135}]}]}
